# Measured values published in patent US20120309798A1, “Tumour Treatment Agents and Method” (Vivolux AB, priority 2009, published 2012).
# Like-named read-outs stand apart in the source and are kept apart here.
# What was measured:
# [1] = test system: AML (Acute Myelocytic Leukemia) patient tumor cells; experiment: FMCA, patient tumor samples, AML; type: cell-based; conditions: Homo sapiens
# Source text: (§1) Cell culture. Patient tumor samples (98) and preparations (4) of normal peripheral blood mononuclear cells (PBMC), detailed in Table 1, were used to determine the activity of VLX50 and, for comparison, six other cytotoxic drugs chosen to represent different mechanistic classes.
# (§2) The tumor samples were obtained by bone marrow/peripheral blood sampling, routine surgery or diagnostic biopsy. Leukemic cells and PBMCs were isolated by 1.077 g ml-1 Ficoll-Paque centrifugation (Larsson et al., 1992). Tumor tissue from solid tumor samples was minced into small pieces and tumor cells were isolated by collagenase dispersion followed by Percoll density gradient centrifugation (Csoka et al., 1994). […] Cell viability was determined by trypan blue exclusion test and the proportion of tumor cells in the preparation was judged by inspection of May-Grunvald-Giemsa stained cytospin slides (FIG. 1a). […]
# (§3) Fluorometric Microculture Cytotoxicity Assay. The Fluorometric Microculture Cytotoxicity Assay, FMCA, described in detail previously (Lindhagen et al., 2008), is based on measurement of fluorescence generated from hydrolysis of fluorescein diacetate (FDA) to fluorescein by cells with intact plasma membranes. […] Quality criteria for a successful assay included a mean coefficient of variation of less than 30% in the control and a fluorescence signal in control wells of more than 5 times the blank. […]
# [2] = test system: normal peripheral blood mononuclear cells (PBMC); experiment: FMCA, normal peripheral blood mononuclear cells; type: cell-based; conditions: Homo sapiens
# Source text: as §1, §2, §3
# [3] = Weight gain and hematological parameters of treated mice; type: in vivo, NMRI male mice; conditions: single dose 760 μg/mouse s.c.
# Procedure: In vivo studies. Cells from two ovarian carcinoma patients and the cell line CEM were cultured inside semi-permeable polyvinylidene fluoride fibers and assessed by the hollow fiber assay (Friberg et al., 2005; Jonsson et al., 2000). The fibers were implanted subcutaneously into NMRI male mice (Scanbur, Sollentuna Sweden), which were treated with a single dose (0.76 mg/mouse) of VLX50 subcutaneously, or vehicle only (n=animals/group). Fibers were retrieved after 6 days and cell density evaluated (FIG. 3a) using the MTT (3-[4,5-dimethylthiazol-2-yl]-2,5-diphenyltetrazolium bromide)-assay (Alley et al. 1988). The method is based on the conversion of MTT to blue formazan crystals by living cells. The formazan was extracted by DMSO as previously described (Jonsson et al. 2000), and optical density (OD) read at 570 nm. Cell density for each fiber on retrieval day was expressed as net growth, defined as (OD retrieval day—OD implantation day)/OD implantation day, i.e. the percent change in cell density in the fibers during the 6 days of in vivo experiment. The animals were observed regarding behavior and weight gain throughout the experiment. Blood samples (200 μl) were obtained through the orbital plexus after anesthetization with isofluran just before euthanasia, and analyzed for hematological parameters. Four animals were caged per cage and fed a commercial diet (Lactamin AB, Sweden), water being given ad libitum.
# In vivo activity in PHTC cultures of ovarian carcinoma. Activity in vivo was determined in hollow fiber cultures of PHTC from ovarian carcinoma patients subcutaneously implanted in mice (FIG. 3a; n=8 each in test and control groups). […] There was no difference in WBC, RBC, and hemoglobin values (FIG. 3c).
# [4] = test system: Assorted tumors: one appendix cancer and one pseudomyxomo peritonei; experiment: FMCA, patient tumor samples, assorted tumors; type: cell-based; conditions: Homo sapiens
# Source text: as §1, §2, §3
# [5] = test system: Lung cancer patient tumor cells; experiment: FMCA, patient tumor samples, lung cancer; type: cell-based; conditions: Homo sapiens
# Source text: as §1, §2, §3
# [6] = test system: solid and hematological patient tumor samples; experiment: Relative effect on solid and hematological tumor samples (S/H ratio), FMCA; type: cell-based, human; conditions: n=98 patient samples; FIG. 2b
# Source text: as §1, §2, §3
# [7] = test system: Renal cancer patient tumor cells; experiment: FMCA, patient tumor samples, renal cancer; type: cell-based; conditions: Homo sapiens
# Source text: as §1, §2, §3
# [8] = test system: CLL (Chronic Lymphocytic Leukemia) patient tumor cells; experiment: FMCA, patient tumor samples, CLL; type: cell-based; conditions: Homo sapiens, range over n=9 samples
# Source text: as §1, §2, §3
# [9] = test system: Colon cancer patient tumor cells; experiment: FMCA, patient tumor samples, colon cancer; type: cell-based; conditions: Homo sapiens
# Source text: as §1, §2, §3
# [10] = n=6, 72 h FMCA, read-out: Median IC50
# [11] = range over n=6 samples, read-out: IC50 Range
compound,measurement,setting,value
"COCCCNC(=S)N/N=C\c1ccccn1 [VLX50, N1-(3-methoxypropyl)-2-(pyridylmethylidene)-hydrazine-1-carbothioamide]",IC50,"[1]; n=10, 72 h FMCA, read-out: Median IC50",5.35 µM
same,IC50,"[1]; range over n=10 samples, read-out: IC50 Range",0.67 to 40 µM
same,IC50,"[2]; n=4, 72 h FMCA, read-out: Median IC50",8.92 µM
same,IC50,"[2]; range over n=4 samples, read-out: IC50 Range",2.88 to 13.3 µM
same,Hemoglobin values,[3],no difference
same,RBC,[3],no difference
same,WBC,[3],no difference
same,Platelet counts,[3]; P<0.05,significant decrease
same,Weight gain compared to the control group,[3]; P<0.05,small but significant reduction
same,IC50,"[4]; n=2, 72 h FMCA, read-out: Median IC50",7.8 µM
same,IC50,"[4]; range over n=2 samples, read-out: IC50 Range",1.6 to 13.3 µM
same,IC50,[5]; [10],13.6 µM
same,IC50,[5]; [11],0.51 to 40 µM
same,S/H ratio (ratio between total response rates for solid and hematological samples),[6],0.73
same,IC50,"[7]; n=7, 72 h FMCA, read-out: Median IC50",> 40 µM
same,IC50,"[7]; range over n=7 samples, read-out: IC50 Range",23.8 to 40 µM
same,IC50,[8],0.035 to 9.4 µM
same,IC50,[9]; [10],> 40 µM
same,IC50,[9]; [11],0.49 to 40 µM
